# Data taken from the supplement of paper PMC11061612.
# What was measured:
# Assay in all cases: combination Emax (second highest fraction inhibited in the dose matrix, 72 h); higher = more inhibition; extreme values may be limits of the assay
# [1] = test system: 8505C (Thyroid Gland Carcinoma)
# Summary of the method: (§1)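 Bliss excess equals the observed combination effect minus the expected value EA + EB − EA·EB, where EA and EB are the effects of each agent alone. Combination Emax is the second-highest inhibition within the matrix. Inhibition was scaled from CellTiter-Glo 2.0 luminescence, with 0 set by vehicle wells and 1 by blank wells, after 72 hours of two-drug dosing of cells plated in 1536-well plates.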
# [2] = test system: COR-L279 (Small Cell Lung Carcinoma)
# Summary of the method: as §1
# [3] = test system: CW-2 (Colorectal Carcinoma)
# Summary of the method: as §1
# [4] = test system: DAN-G (Pancreatic Carcinoma)
# Summary of the method: as §1
# G-361 (Melanoma) = test system: G-361 (Melanoma)
# Summary of the method: as §1
# [5] = test system: KU812 (Chronic Myelogenous Leukemia)
# Summary of the method: as §1
# [6] = test system: KY821 (Acute Myeloid Leukemia)
# Summary of the method: as §1
# [7] = test system: MN-60 (B-Lymphoblastic Leukemia)
# Summary of the method: as §1
# [8] = test system: MOG-G-CCM (Low Grade Glioma)
# Summary of the method: as §1
# [9] = test system: NCCIT (Other Solid Carcinomas)
# Summary of the method: as §1
# [10] = test system: NCI-H3122 (Lung Adenocarcinoma)
# Summary of the method: as §1
# [11] = test system: NCI-H520 (Squamous Cell Lung Carcinoma)
# Summary of the method: as §1
# [12] = test system: NCI-H526 (Small Cell Lung Carcinoma)
# Summary of the method: as §1
# [13] = test system: NCI-H929 (Plasma Cell Myeloma)
# Summary of the method: as §1
# [14] = test system: PC-3 (Prostate Carcinoma)
# Summary of the method: as §1
# RD (Rhabdomyosarcoma) = test system: RD (Rhabdomyosarcoma)
# Summary of the method: as §1
# [15] = test system: SNU-398 (Hepatocellular Carcinoma)
# Summary of the method: as §1
# [16] = test system: SU-DHL-5 (B-Cell Non-Hodgkin's Lymphoma)
# Summary of the method: as §1
# [17] = test system: SUP-B15 (B-Lymphoblastic Leukemia)
# Summary of the method: as §1
# [18] = test system: T-T (Esophageal Squamous Cell Carcinoma)
# Summary of the method: as §1
SMILES,combination Emax [1],combination Emax [2],combination Emax [3],combination Emax [4],combination Emax (G-361 (Melanoma)),combination Emax [5],combination Emax [6],combination Emax [7],combination Emax [8],combination Emax [9],combination Emax [10],combination Emax [11],combination Emax [12],combination Emax [13],combination Emax [14],combination Emax (RD (Rhabdomyosarcoma)),combination Emax [15],combination Emax [16],combination Emax [17],combination Emax [18]
"COc1nnc2ccc(N3CCC(c4ccc(OCCN5CCN(C)C(=O)[C@H]5C)cc4)CC3)nn12 [AZD5153] + C[C@@H]1COCCN1C2=NC(=NC(=C2)C3(CC3)[S@](=N)(=O)C)C4=C5C=CNC5=NC=C4 [AZD6738] (first compound max 1 µM, 7x7, partner max 10 µM)",0.807,0.972,0.722,0.726,0.872,0.963,1,0.8,0.702,0.901,0.757,0.869,0.947,0.991,0.5,0.748,0.786,1,1,0.587
"CC1(C)CCC(CN2CCN(c3ccc(C(=O)NS(=O)(=O)c4ccc(NCC5CCOCC5)c([N+](=O)[O-])c4)c(Oc4cnc5[nH]ccc5c4)c3)CC2)=C(c2ccc(Cl)cc2)C1 [Venetoclax] + Cc1cc2ncnn2cc1Nc1ncc2c(n1)n(C1CCOCC1)c(=O)n2C [AZD7648] (first compound max 1 µM, 7x7, partner max 10 µM)",0.187,0.372,0.163,0.363,0.152,0.489,0.956,0.299,0.303,0.289,0.387,0.54,0.657,0.812,0.263,0.183,0.29,0.687,1,0.172
"CC1(C)CCC(CN2CCN(c3ccc(C(=O)NS(=O)(=O)c4ccc(NCC5CCOCC5)c([N+](=O)[O-])c4)c(Oc4cnc5[nH]ccc5c4)c3)CC2)=C(c2ccc(Cl)cc2)C1 [Venetoclax] + COc1cc(Nc2ncc3c(n2)-c2ccc(Cl)cc2C(c2c(F)cccc2OC)=NC3)ccc1C(=O)O [Alisertib] (first compound max 1 µM, 7x7, partner max 10 µM)",0.275,0.82,0.16,0.425,0.415,0.838,1,0.291,0.806,0.51,0.336,0.54,0.852,0.662,0.321,0.543,0.498,0.803,1,0.487
"Cn1cnc2c(F)c(Nc3ccc(Br)cc3Cl)c(C(=O)NOCCO)cc21 [Selumetinib] + C=CCn1c(=O)c2cnc(Nc3ccc(N4CCN(C)CC4)cc3)nc2n1-c1cccc(C(C)(C)O)n1 [AZD1775] (first compound max 10 µM, partner max 1 µM)",0.425,0.432,0.464,0.811,0.826,0.965,1,0.282,0.357,0.773,0.78,0.295,0.69,0.684,0.165,0.669,0.784,0.984,0.915,0.301
"Cc1c2c(nn1C)CSCc1cc(n(C)n1)CSc1cc(c3ccccc3c1)OCCCc1c(C(=O)O)n(C)c3c-2c(Cl)ccc13 [AZD5991] + C=CCn1c(=O)c2cnc(Nc3ccc(N4CCN(C)CC4)cc3)nc2n1-c1cccc(C(C)(C)O)n1 [AZD1775] (first compound max 1 µM, partner max 1 µM)",0.27,0.466,0.402,0.883,0.967,0.885,1,0.188,0.457,0.86,0.815,0.76,0.818,1,0.245,0.788,1,1,1,0.915
"Cc1c2c(nn1C)CSCc1cc(n(C)n1)CSc1cc(c3ccccc3c1)OCCCc1c(C(=O)O)n(C)c3c-2c(Cl)ccc13 [AZD5991] + C1CN(CCC1(C(=O)N[C@@H](CCO)C2=CC=C(C=C2)Cl)N)C3=NC=NC4=C3C=CN4 [Capivasertib] (first compound max 1 µM, 7x7, partner max 3 µM)",0.158,0.579,0.179,0.401,1,0.858,1,0.339,0.326,0.82,0.419,0.561,0.47,1,0.287,0.535,1,1,1,0.922
